Tested on: actinic keratoses
Assay: Randomized, blinded patient study of topical picropodophyllin solution for actinic keratoses (lesion count in treatment area)
Type: in vivo, patients
Conditions: topical twice daily for 1 week
Description: To date, 56 patients have been studied to determine the efficacy of picropodophyllin in treating actinic keratoses. The patients were randomized into four groups, and the patients in each group were treated with a solution containing either 0.5%, 1.25%, or 2.0% picropodophyllin (w/v) in propylene glycol, or a placebo constituting only the vehicle propylene glycol. The picropodophyllin solution was prepared in 100% propylene glycol solution. The solutions were prepared aseptically following GMP protocols. The affected areas of the body variously included the scalp, face, arms, and legs. Without knowing which one of the four solutions they were applying, the subjects self-applied one of the solutions to the skin. After initial application, the subjects gently massaged the solutions into their skin. This was done twice daily for 1 week. Lesions (actinic keratosis) were palpated and visualized by a trained lesion counter who is a board certified dermatologist. The same investigator evaluated each subject at each visit for consistency. The subjects were evaluated at baseline, day 3, day 7, day 14, day 28, day 56 and day 90. Within the treatment area, the number of lesions were counted, regardless of their size. The change in the number of lesions (% decline from baseline) within the treatment area was calculated and the results are shown in the table below: […]

SMILES: COc1cc([C@@H]2c3cc4c(cc3[C@H](O)[C@H]3COC(=O)[C@@H]23)OCO4)cc(OC)c1OC [PPP, picropodophyllin]
- % Decline from Baseline (number of lesions in treatment area) (0.50% PPP w/v in propylene glycol, 28 days): −56^AB %
- % Decline from Baseline (number of lesions in treatment area) (0.50% PPP w/v in propylene glycol, 56 days): −82^AB %
- % Decline from Baseline (number of lesions in treatment area) (0.50% PPP w/v in propylene glycol, 90 days): −90^AB %
- % Decline from Baseline (number of lesions in treatment area) (1.25% PPP w/v in propylene glycol, 28 days): −53^AB %
- % Decline from Baseline (number of lesions in treatment area) (1.25% PPP w/v in propylene glycol, 56 days): −73^AB %
- % Decline from Baseline (number of lesions in treatment area) (1.25% PPP w/v in propylene glycol, 90 days): −65^AB %
- % Decline from Baseline (number of lesions in treatment area) (2.00% PPP w/v in propylene glycol, 28 days): −17%
- % Decline from Baseline (number of lesions in treatment area) (2.00% PPP w/v in propylene glycol, 56 days): −55^AB %
- % Decline from Baseline (number of lesions in treatment area) (2.00% PPP w/v in propylene glycol, 90 days): −84^AB %
